Experimental data: the supplement of paper PMC10307832

What was measured:
Test in all cases: relative viability (nuclei count vs DMSO), 5 days (fraction); higher = more cells survive
[1] = tested on: H3255
In short: (§1)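 Five library-drug doses in √10 steps were combined with a fixed anchor-drug dose, or a single drug was given alone, by pin tool to lung cancer cell lines in 1536-well plates the day after seeding. Nuclei were stained and counted after 5 days. Relative viability is the nuclei count in treated wells over that in vehicle wells, taken as the median of duplicate plates.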

[2] = tested on: PC-14
In short: as §1

[3] = tested on: NCI-H2023
In short: as §1

[4] = tested on: NCI-H2085
In short: as §1

[5] = tested on: HOP-62
In short: as §1

[6] = tested on: NCI-H2009
In short: as §1

[7] = tested on: NCI-H1915
In short: as §1

[8] = tested on: NCI-H661
In short: as §1

[9] = tested on: SK-LU-1
In short: as §1

[10] = tested on: EPLC-272H
In short: as §1

[11] = tested on: LCLC-97TM1
In short: as §1

[12] = tested on: NCI-H1993
In short: as §1

[13] = tested on: NCI-H2126
In short: as §1

[14] = tested on: NCI-H727
In short: as §1

[15] = tested on: NCI-H322M
In short: as §1

[16] = tested on: SW 1573
In short: as §1

[17] = tested on: EMC-BAC-2
In short: as §1

[18] = tested on: NCI-H1563
In short: as §1

[19] = tested on: LXF-289
In short: as §1

[20] = tested on: NCI-H2347
In short: as §1

[21] = tested on: NCI-H647
In short: as §1

Structure (SMILES): NC(=O)Nc1cc(-c2cccc(F)c2)sc1C(=O)N[C@H]1CCCNC1 [AZD7762] + Cc1nc(NC(=O)N2CCC[C@H]2C(N)=O)sc1-c1ccnc(C(C)(C)C(F)(F)F)c1 [Alpelisib] (partner 2 µM)
- relative viability ([1]; first compound 0.01 µM): 0.727
- relative viability ([1]; first compound 0.03162 µM): 0.63
- relative viability ([1]; first compound 0.1 µM): 0.634
- relative viability ([1]; first compound 0.3162 µM): 0.705
- relative viability ([1]; first compound 1 µM): 0.357
- relative viability ([2]; first compound 0.01 µM): 0.894
- relative viability ([2]; first compound 0.03162 µM): 0.953
- relative viability ([2]; first compound 0.1 µM): 0.922
- relative viability ([2]; first compound 0.3162 µM): 0.919
- relative viability ([2]; first compound 1 µM): 0.392
- relative viability ([3]; first compound 0.01 µM): 0.651
- relative viability ([3]; first compound 0.03162 µM): 0.608
- relative viability ([3]; first compound 0.1 µM): 0.436
- relative viability ([3]; first compound 0.3162 µM): 0.328
- relative viability ([3]; first compound 1 µM): 0.108
- relative viability ([4]; first compound 0.01 µM): 1.06
- relative viability ([4]; first compound 0.03162 µM): 0.928
- relative viability ([4]; first compound 0.1 µM): 1.1
- relative viability ([4]; first compound 0.3162 µM): 1.06
- relative viability ([4]; first compound 1 µM): 0.782
- relative viability ([5]; first compound 0.01 µM): 0.918
- relative viability ([5]; first compound 0.03162 µM): 1.22
- relative viability ([5]; first compound 0.1 µM): 0.836
- relative viability ([5]; first compound 0.3162 µM): 1.04
- relative viability ([5]; first compound 1 µM): 1.36
- relative viability ([6]; first compound 0.01 µM): 1.3
- relative viability ([6]; first compound 0.03162 µM): 1.15
- relative viability ([6]; first compound 0.1 µM): 1.27
- relative viability ([6]; first compound 0.3162 µM): 1.08
- relative viability ([6]; first compound 1 µM): 1.11
- relative viability ([7]; first compound 0.01 µM): 1.06
- relative viability ([7]; first compound 0.03162 µM): 1.12
- relative viability ([7]; first compound 0.1 µM): 1.09
- relative viability ([7]; first compound 0.3162 µM): 1.09
- relative viability ([7]; first compound 1 µM): 0.997
- relative viability ([8]; first compound 0.01 µM): 0.712
- relative viability ([8]; first compound 0.03162 µM): 0.611
- relative viability ([8]; first compound 0.1 µM): 0.761
- relative viability ([8]; first compound 0.3162 µM): 0.491
- relative viability ([8]; first compound 1 µM): 0.35
- relative viability ([9]; first compound 0.01 µM): 1.14
- relative viability ([9]; first compound 0.03162 µM): 0.72
- relative viability ([9]; first compound 0.1 µM): 0.329
- relative viability ([9]; first compound 0.3162 µM): 0.207
- relative viability ([9]; first compound 1 µM): 0.236
- relative viability ([10]; first compound 0.01 µM): 1.07
- relative viability ([10]; first compound 0.03162 µM): 1.1
- relative viability ([10]; first compound 0.1 µM): 1.13
- relative viability ([10]; first compound 0.3162 µM): 0.992
- relative viability ([10]; first compound 1 µM): 0.674
- relative viability ([11]; first compound 0.01 µM): 0.292
- relative viability ([11]; first compound 0.03162 µM): 0.272
- relative viability ([11]; first compound 0.1 µM): 0.314
- relative viability ([11]; first compound 0.3162 µM): 0.278
- relative viability ([11]; first compound 1 µM): 0.298
- relative viability ([12]; first compound 0.01 µM): 0.671
- relative viability ([12]; first compound 0.03162 µM): 0.708
- relative viability ([12]; first compound 0.1 µM): 0.651
- relative viability ([12]; first compound 0.3162 µM): 0.673
- relative viability ([12]; first compound 1 µM): 0.753
- relative viability ([13]; first compound 0.01 µM): 0.794
- relative viability ([13]; first compound 0.03162 µM): 0.775
- relative viability ([13]; first compound 0.1 µM): 0.887
- relative viability ([13]; first compound 0.3162 µM): 0.824
- relative viability ([13]; first compound 1 µM): 0.85
- relative viability ([14]; first compound 0.01 µM): 0.583
- relative viability ([14]; first compound 0.03162 µM): 0.561
- relative viability ([14]; first compound 0.1 µM): 0.471
- relative viability ([14]; first compound 0.3162 µM): 0.466
- relative viability ([14]; first compound 1 µM): 0.218
- relative viability ([15]; first compound 0.01 µM): 0.776
- relative viability ([15]; first compound 0.03162 µM): 0.906
- relative viability ([15]; first compound 0.1 µM): 0.819
- relative viability ([15]; first compound 0.3162 µM): 0.94
- relative viability ([15]; first compound 1 µM): 0.906
- relative viability ([16]; first compound 0.01 µM): 0.885
- relative viability ([16]; first compound 0.03162 µM): 0.807
- relative viability ([16]; first compound 0.1 µM): 0.926
- relative viability ([16]; first compound 0.3162 µM): 1.08
- relative viability ([16]; first compound 1 µM): 0.647
- relative viability ([17]; first compound 0.01 µM): 0.82
- relative viability ([17]; first compound 0.03162 µM): 0.72
- relative viability ([17]; first compound 0.1 µM): 0.79
- relative viability ([17]; first compound 0.3162 µM): 0.762
- relative viability ([17]; first compound 1 µM): 0.797
- relative viability ([18]; first compound 0.01 µM): 1.01
- relative viability ([18]; first compound 0.03162 µM): 0.918
- relative viability ([18]; first compound 0.1 µM): 0.978
- relative viability ([18]; first compound 0.3162 µM): 0.943
- relative viability ([18]; first compound 1 µM): 0.76
- relative viability ([19]; first compound 0.01 µM): 1.01
- relative viability ([19]; first compound 0.03162 µM): 1.07
- relative viability ([19]; first compound 0.1 µM): 1.12
- relative viability ([19]; first compound 0.3162 µM): 1.04
- relative viability ([19]; first compound 1 µM): 1.14
- relative viability ([20]; first compound 0.01 µM): 1.07
- relative viability ([20]; first compound 0.03162 µM): 0.993
- relative viability ([20]; first compound 0.1 µM): 1.11
- relative viability ([20]; first compound 0.3162 µM): 1.26
- relative viability ([20]; first compound 1 µM): 1.01
- relative viability ([21]; first compound 0.01 µM): 1.28
- relative viability ([21]; first compound 0.03162 µM): 1.02
- relative viability ([21]; first compound 0.1 µM): 1.04
- relative viability ([21]; first compound 0.3162 µM): 0.61
- relative viability ([21]; first compound 1 µM): 0.104
